Reference: patent publication US8574578B2, “Antibodies against PDGFRα to inhibit tumor growth” (ImClone LLC, priority 2006, dated 2013)

Experiments:
[1] = system: Akt phosphorylation in PC3-ML cells; assay: Akt phosphorylation in PC3-ML cells (Western blot); assay type: cell-based, human; settings: 20 μM AG-1296
Protocol: Bone marrow samples from normal male donors (ages 18-45) were supplied by Cambrex (Poietics™ Donor Program). Samples were centrifuged at 1,500 rpm in order to separate the soluble and cellular phases. The supernatant was filtered using 0.8 μm and 0.22 μm filters in succession. 50 μl of bone marrow aspirate was administered to cells in 1 ml of medium (1:20 final dilution).
For experiments performed in the presence of serum, cells were cultured in DMEM supplemented with 10% FBS and 50 μg/ml gentamycin for 24 hours prior to exposure to bone marrow. For experiments in the absence of serum (starved cells), cells were washed twice with PBS, the growth medium was replaced with serum-free DMEM, and the cells were incubated for 4 hours prior to exposure to bone marrow preparations. When used, AG-1296, a specific inhibitor of PDGF receptors (Rice et al., 1999, Amer. J. Path. 155, 213-21) was added to cultures 30 min. prior to exposure to bone marrowaspirate. IMC-3G3 antibodies were administered as described at pre-treatment times as stated below.

LuCaP 35V xenograft [2] = assay: Serum PSA in mice carrying LuCaP 35V xenografts (IMx Total PSA Assay); assay type: in vivo, castrated SCID mice
Protocol: (§1) All treatments were administered intraperitoneally (ip). Docetaxel was administered once a week. A12 was administered three times a week. […] Animals were weighed twice a week. Blood samples were collected from orbital sinus weekly.

LuCaP 35V xenograft [3] = assay: TUNEL / propidium staining flow cytometry of tumor cells at time of sacrifice; assay type: in vivo, castrated SCID mice; settings: percentage of tumors; for Apoptosis (%): four weeks after treatment termination; for G1 arrest (%) / G2 arrest (%) / Normal cycle (%): time of sacrifice
Protocol: After euthanization, tumors were collected and halved. A portion of the tumors were fixed in 10% neutral buffer formalin (NFB) and embedded in paraffin. Five micron sections were prepared for immunohistochemistry (IHC) staining. The remaining portion of the tumors was separated into single cells mechanically by mincing and filtering through 70 μm nylon sieves.
The combined in vivo effect of docetaxel and A12 treatment on cell cycle and cell survival at the experimental end point was measured by terminal deoxynucleotidyl transferase-mediated nick end labeling (TUNEL) assay and propidium (PI) staining using the Apop-Direct kit (BD BioScience) as previously described. Briefly, 1×10^6 cells from the single-cell suspension were fixed with 10% neutral buffer formalin (NBF) followed by 70% ethanol alcohol at −20° C. for 30 min. After several washes, cells were permeabilized with 0.1% Triton X-100 and incubated with FITC-conjugated dUTP and terminal deoxynucleotidyl transferase enzyme (TdT) at 37° C. for 1 h, followed by an incubation with PI/RNase buffer (100 μg/ml of PI, 50 μg/ml RNase) at room temperature for 60 min. Samples were analyzed by flow cytometry using a BD FACscan. Data were analyzed with CellQuest^PRO software.

[4] = Overall cytotoxicity of coadministration of docetaxel and IMC-A12; assay type: in vivo, SCID mice; settings: compared to control tumor-bearing animals
Protocol: as §1
Cytotoxicity of coadministration of docetaxel and IMC-A12 was examined.

[5] = system: LuCaP 23.1 prostate cancer cells; assay: IMC-A12 + docetaxel, LuCaP 23.1 tibial bone metastases, six weeks (present-tense example); assay type: in vivo, castrated SCID mice; settings: weekly PSA, during and after six weeks of treatment
Protocol: SCID mice are castrated 2 weeks prior to tibial tumor injections. Bone metastases are generated by direct injection of LuCaP 23.1 prostate cancer cells into the tibia of the mice, giving rise to osteoblastic lesions. The xenografts express IGF-IR. Serum PSA levels are measured biweekly to evaluate tumor growth. When serum PSA levels reach 5-10 ng/ml indicating established tumor, animals are randomized into four groups.
In two groups, 40 mg/kg of IMC-A12 are injected i.p. three times a week for six weeks with one group receiving IMC-A12+docetaxel 20 mg/kg i.p once a week for 6 weeks and a second group IMC-A12+docetaxel 10 mg i.p. three times a week for 6 weeks. Control groups receive 10 or 20 mg docetaxel i.p. without IMC-A12.
Animals are monitored with weekly PSA measurements. After termination of treatment, animals continue to be monitored with weekly PSA measurements until tumors in the docetaxel only groups show tumor regrowth. […] Reductions in PSA levels are observed to continue, even after termination of treatment at six weeks.
As indicated above, BMD measurements are made at the time of engraftment and at sacrifice, and radiographs are taken just prior to sacrifice.

[6] = system: LuCaP 23.1 human prostate tumor; assay: Docetaxel with or without A12, LuCaP 23.1 intratibial xenografts, four weeks; assay type: in vivo, SCID mice
Protocol: LuCaP 23.1 human prostate tumor bits (20 to 30 mm^3) were mechanically digested. 2-5×10^5 viable LuCaP 23.1 cells were injected into the tibiae of 6-8 wk old SCID mice. 21 mice randomized into three groups were used for the study. After tumor injection, serum PSA was monitored weekly. Treatment started when serum PSA level reached 5-10 ng/ml, an indication of tumor growth. Group 1 received control vehicle saline buffer. Group 2 received 20 mg/kg of docetaxel i.p once a week for 4 weeks. Group 3 received 20 mg/kg of docetaxel once a week and 40 mg/kg of A12 i.p. three times a week for 4 weeks. To determine whether the response to treatment was osteoblastic or osteolytic, BMD was measured by Dexa-scan and x-rays of the animals at the end point of all treatments.

LuCaP 35V xenograft [7] = assay: LuCaP 35V subcutaneous xenograft tumor growth
Protocol: Tumor bits (20 to 30 mm^3) of androgen-independent (AI) LuCaP 35V were implanted subcutaneously (s.c.) into 32 six-week-old castrated SCID mice respectively as previously described (4). […] Group 1 animals received docetaxel treatment at a dose of 20 mg/kg. Group 2 animals received docetaxel treatment at a dose of 10 mg/kg. Group 3 animals received combined treatment of 10 mg/kg docetaxel and 40 mg/kg A12. Group 4 animals received combined treatment of 20 mg/kg docetaxel and 40 mg/kg A12. All treatments were administered intraperitoneally (ip). Docetaxel was administered once a week. A12 was administered three times a week. All animals were treated for four weeks and monitored for additional four weeks before euthanization. Tumors were measured twice weekly and tumor volume was estimated by the formula: volume=L×W^2/2. Following our University of Washington IACUC approved animal protocol, some animals were euthanized at an earlier time when tumor reached a volume of 1000 mm^3 or when animal weight loss exceeded 20% of initial body weight. Animals were weighed twice a week.

[8] = Post-treatment serum levels of A12; assay type: in vivo, SCID mice
Protocol: Serum levels of A12 were measured in animals that had received docetaxel combined with A12.

murine IGF-IR = murine IGF-IR (Mus musculus, UniProt Q60751); assay: Cross-reactivity of A12 with murine IGF-IR; assay type: binding
LuCaP 23.1 xenograft = assay: IMC-A12 treatment of LuCaP 23.1 intratibial xenografts (PSA, BMD, radiographs); assay type: in vivo, castrated SCID mice
Protocol: Anti-IGF-IR antibody therapy for bone metastases. The effectiveness of treatment with anti-IGF-IR antibodies on metastatic growth of prostate cancer cells in bone was evaluated using prostate cancer cells injected directly into the tibia of SCID mice. By this method, metastatic tumors are established directly without reliance on chemotaxis dependent invasion from the circulation. A variety of tumor lines are available for establishing bone metastases. These include PC-3, LuCaP35, and LnCaP cells which produce osteolytic lesions and LuCaP 23.1 cells which produce osterblastic lesions.
To evaluate the effectiveness of treatment with IMC-A12, LuCaP 23.1 xenograft tumors were engrafted in SCID mice, and serum PSA levels were measured biweekly to evaluate tumor growth. All animals were castrated two weeks prior to tibial tumor cell engraftment. Administration of IMC-A12 to test mice was begun when serum PSA levels reached 5-10 ng/ml (indicating established tumors). 40 mg/kg IMC-A12 was injected i.p. three times a week for six weeks.
Bone mineral density (BMD) of the tumored tibiae and the contralateral tibiae without tumor was measured by Dual X-ray absorptiometry (PIXImus Lunar densitometer) performed on a 2.5 mm×2.5 mm area at the tumor cell injection site, or the corresponding site of the contralateral tibia at the time of engraftment. Biweekly assessment of lesions was made by serum PSA measurements. All animals were sacrificed when the bone lesions in the control group had recurred after castration based on serum PSA levels (LuCaP 35 >60 ng/ml, ng/ml, LuCaP 23.1 >500 ng/ml), radiographical appearance of the bone lesions or when animals became compromised. One hour prior to sacrifice animals were injected with BrdU to monitor tumor cell proliferation. Radiographs were taken prior to sacrifice (FaxitronX-ray MX-20), and BMD of both tibiae were measured at the time of sacrifice.

[9] = 40 mg/kg IMC-A12 i.p. three times a week for six weeks, at sacrifice

murine IGF-IR, sequence (Q60751 31-1373): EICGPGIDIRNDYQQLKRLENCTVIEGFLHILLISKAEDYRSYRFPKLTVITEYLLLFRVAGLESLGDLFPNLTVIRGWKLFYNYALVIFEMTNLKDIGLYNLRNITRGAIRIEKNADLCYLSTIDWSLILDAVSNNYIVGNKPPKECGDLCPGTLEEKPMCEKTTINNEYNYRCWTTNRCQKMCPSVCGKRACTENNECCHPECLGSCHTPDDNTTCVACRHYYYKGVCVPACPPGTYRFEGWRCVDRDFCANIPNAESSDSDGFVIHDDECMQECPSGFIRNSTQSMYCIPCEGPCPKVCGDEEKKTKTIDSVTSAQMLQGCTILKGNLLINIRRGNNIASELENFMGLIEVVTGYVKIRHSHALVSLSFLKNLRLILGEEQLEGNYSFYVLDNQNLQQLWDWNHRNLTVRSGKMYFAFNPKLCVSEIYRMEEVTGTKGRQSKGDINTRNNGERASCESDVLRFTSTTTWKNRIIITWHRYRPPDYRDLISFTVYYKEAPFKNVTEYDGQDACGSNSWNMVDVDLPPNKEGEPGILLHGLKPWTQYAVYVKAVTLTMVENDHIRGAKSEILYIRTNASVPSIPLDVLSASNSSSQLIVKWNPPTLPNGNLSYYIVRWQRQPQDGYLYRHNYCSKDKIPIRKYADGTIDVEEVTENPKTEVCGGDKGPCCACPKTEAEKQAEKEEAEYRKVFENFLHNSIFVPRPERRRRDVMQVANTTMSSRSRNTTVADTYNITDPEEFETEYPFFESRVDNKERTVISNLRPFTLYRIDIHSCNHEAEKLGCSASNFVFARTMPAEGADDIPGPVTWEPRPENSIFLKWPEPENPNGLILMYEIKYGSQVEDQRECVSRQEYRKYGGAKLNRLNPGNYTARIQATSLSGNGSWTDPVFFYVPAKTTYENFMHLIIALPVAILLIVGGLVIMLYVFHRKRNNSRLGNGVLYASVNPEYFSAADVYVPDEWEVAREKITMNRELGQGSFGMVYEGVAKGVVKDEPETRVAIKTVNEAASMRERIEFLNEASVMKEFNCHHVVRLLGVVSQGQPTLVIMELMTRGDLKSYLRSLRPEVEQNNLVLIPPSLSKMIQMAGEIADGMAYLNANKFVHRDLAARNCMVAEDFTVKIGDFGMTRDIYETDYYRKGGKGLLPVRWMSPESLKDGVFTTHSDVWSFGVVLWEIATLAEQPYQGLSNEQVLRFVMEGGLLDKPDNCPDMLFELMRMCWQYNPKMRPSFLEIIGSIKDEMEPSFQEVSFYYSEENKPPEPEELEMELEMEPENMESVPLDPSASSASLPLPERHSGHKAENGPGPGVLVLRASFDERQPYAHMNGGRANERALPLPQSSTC

COc1cc2ncc(-c3ccccc3)nc2cc1OC [AG-1296, reference compound]
inhibition of bone marrow aspirate induced Akt activation [1]: more than 40%
inhibition of PDGF-BB induced Akt activation ([1]; 30 ng/ml PDGF-BB): completely inhibits

CC(=O)O[C@@]12CO[C@@H]1C[C@H](O)[C@@]1(C)C(=O)[C@H](O)C3=C(C)[C@@H](OC(=O)[C@H](O)[C@@H](NC(=O)OC(C)(C)C)c4ccccc4)C[C@@](O)([C@@H](OC(=O)c4ccccc4)[C@H]21)C3(C)C [docetaxel]
serum PSA level during the four-week treatment (LuCaP 35V xenograft [2]; A12 + docetaxel, or 20 mg/kg docetaxel alone): no significant change
serum PSA level after treatment termination (LuCaP 35V xenograft [2]; mouse, in vivo): increased
Apoptosis (%) (LuCaP 35V xenograft [3]; docetaxel 10 mg/kg groups): No apoptosis
Apoptosis (%) (LuCaP 35V xenograft [3]; docetaxel 10 mg/kg groups, listed as Doc (10)): 0%
G1 arrest (%) (LuCaP 35V xenograft [3]; docetaxel 10 mg/kg groups): 0%
G2 arrest (%) (LuCaP 35V xenograft [3]; docetaxel 10 mg/kg groups): 12%
Normal cycle (%) (LuCaP 35V xenograft [3]; docetaxel 10 mg/kg groups): 88%
Apoptosis (%) (LuCaP 35V xenograft [3]; docetaxel 20 mg/kg groups): No apoptosis
Apoptosis (%) (LuCaP 35V xenograft [3]; docetaxel 20 mg/kg groups, listed as Doc (20)): 0%
G1 arrest (%) (LuCaP 35V xenograft [3]; docetaxel 20 mg/kg groups): 0%
G2 arrest (%) (LuCaP 35V xenograft [3]; docetaxel 20 mg/kg groups): 0%
Normal cycle (%) (LuCaP 35V xenograft [3]; docetaxel 20 mg/kg groups): 100%
daily activity or behavior [4]: no abnormal daily activity or behavior changes
PSA levels [5]: rise
LuCaP 23.1 tumor growth as reflected by serum PSA levels during treatment ([6]; docetaxel 20 mg/kg once a week, A12 40 mg/kg three times a week, 4 weeks): significantly inhibited
serum PSA after treatment cessation ([6]; docetaxel 20 mg/kg, A12 40 mg/kg): began to increase
average bone density (mean±SEM) ([6]; week five, docetaxel 20 mg/kg, A12 40 mg/kg): 0.09±0.02
rate of tumor volume increase in the four weeks following treatment termination (LuCaP 35V xenograft [7]; docetaxel 20 mg/kg alone): 27.0±16.1 mm^3/week
tumor volume during the four-week treatment period (LuCaP 35V xenograft [7]; docetaxel 20 mg/kg with or without combined A12): tumor volume did not increase
tumor growth rate during treatment (LuCaP 35V xenograft [7]; four-week ip treatment, A12 alone 40 μg/kg as printed, docetaxel 10 mg/kg, docetaxel 10 mg/kg + A12): 29.6±6.1 mm^3/week

IMC-A12: human IgG1 anti-IGF-IR antibody; heavy chain variable domain SEQ ID NO:41, light chain variable domain SEQ ID NO:51
serum A12 level ([8]; four weeks after treatment cessation): very low level
decline of serum A12 levels ([8]; two weeks after treatment cessation, animals received docetaxel combined with A12): 100 fold
cross-reactivity with murine IGF-IR (murine IGF-IR): greater than 95%
loss of bone density (osteoporosis), non-tumored legs (LuCaP 23.1 xenograft; 40 mg/kg IMC-A12): did not cause a loss of bone density
Bone mineral density (BMD), Non-tumored leg, Mean (LuCaP 23.1 xenograft; [9]): 0.045
Bone mineral density (BMD), Tumored Leg, Mean (LuCaP 23.1 xenograft; [9]): significantly reduced
Bone mineral density (BMD), Tumored Leg, Mean (LuCaP 23.1 xenograft; 40 mg/kg IMC-A12 i.p. three times a week for six weeks, at sacrifice, listed as A12): 0.060
Serum PSA levels (LuCaP 23.1 xenograft; 40 mg/kg IMC-A12 vs untreated): significantly lower
tumor progression on radiographs (LuCaP 23.1 xenograft; 40 mg/kg IMC-A12 vs untreated): significantly reduced or prevented
